Measurements taken from ChEMBL document CHEMBL5537152, “Targeted Degradation of PCSK9 In Vivo by Autophagy-Tethering Compounds” (J Med Chem, 2024).
Activity calls are given as the source filed them. The calls are words filed in the database; no cut-off is given here.

Tests used:
Mus musculus [1] = test: Antiatherosclerotic activity in hypercholesterolemic ApoE-/- mouse model assessed as accumulation of cholesterol in liver at 5 to 15 mg/kg/day, ip measured after 21 days; assay type: functional, organism-based; conditions: dose 5-15 mg/kg/day, time 21.0 day
Mus musculus [2] = test: Synergistic antiatherosclerotic activity in hypercholesterolemic ApoE-/- mouse model assessed as increase in liver LDLR at 5 to 15 mg/kg, ip administered daily for 3 weeks in presence of SIMV by Western blot analysis; assay type: functional, organism-based; conditions: dose 5-15 mg/kg
Mus musculus [3] = test: Antiatherosclerotic activity in hypercholesterolemic ApoE-/- mouse model assessed as decrease in liver PCSK9 level at 5 to 15 mg/kg/day, ip measured after 21 days by Western blot analysis; assay type: functional, organism-based; conditions: dose 5-15 mg/kg/day, time 21.0 day
Mus musculus [4] = test: Synergistic antiatherosclerotic activity in hypercholesterolemic ApoE-/- mouse model assessed as decrease in vacuolization in liver at 5 to 15 mg/kg, ip administered daily for 3 weeks in presence of SIMV by Masson staining based analysis; assay type: functional, organism-based; conditions: dose 5-15 mg/kg
Mus musculus [5] = test: Antiatherosclerotic activity in hypercholesterolemic ApoE-/- mouse model assessed as decrease in liver fibrosis at 5 to 15 mg/kg/day, ip measured after 21 days by Masson staining based analysis; assay type: functional, organism-based; conditions: dose 5-15 mg/kg/day, time 21.0 day
Mus musculus [6] = test: Antiatherosclerotic activity in hypercholesterolemic ApoE-/- mouse model assessed as increase in liver LDLR level administered intraperitoneally measured after 14 days; assay type: functional, organism-based; conditions: dose 15.0 mg/kg/day, route ip, time 14.0 day
Huh-7 [7] = test: Effect on autophagic flux in human Huh-7 cells upto 100 nM incubated for 24 hrs by Western blot analysis; assay type: functional, cell-based
Mus musculus [8] = test: Antiatherosclerotic activity in hypercholesterolemic ApoE-/- mouse model assessed as decrease in plasma TG level administered intraperitoneally measured after 21 days; assay type: functional, organism-based; conditions: dose 5-15 mg/kg/day, route ip, time 21.0 day
Liver = test: In vivo induction of PCSK9 degradation in liver of hypercholesterolemic ApoE-/- mouse model at administered intraperitoneally daily for 3 weeks in presence of SIMV by Western blot analysis; assay type: functional, organism-based; conditions: dose 5-15 mg/kg, route ip
Huh-7 [9] = test: Effect on LDLR mRNA level in human Huh-7 cells at 20 to 500 nM incubated for 12 hrs by qRT-PCR analysis; assay type: functional, cell-based; conditions: dose 20-500 nM
Mus musculus [10] = test: Antiatherosclerotic activity in hypercholesterolemic ApoE-/- mouse model assessed as increase in liver LDLR level at 5 to 15 mg/kg/day, ip measured after 21 days by immunohistochemistry analysis; assay type: functional, organism-based; conditions: dose 5-15 mg/kg/day, time 21.0 day
Mus musculus [11] = test: Effect on body weight in hypercholesterolemic ApoE-/- mouse model at 0.5 to 30 mg/kg/day, ip measured for 14 days; assay type: functional, organism-based; conditions: dose 0.5-30 mg/kg/day, time 14.0 day
Mus musculus [12] = test: Synergistic antiatherosclerotic activity in hypercholesterolemic ApoE-/- mouse model assessed as decrease in vacuolization in liver at 5 to 15 mg/kg, ip administered daily for 3 weeks in presence of SIMV by H and E staining based analysis; assay type: functional, organism-based; conditions: dose 5-15 mg/kg
Mus musculus [13] = test: Synergistic antiatherosclerotic activity in hypercholesterolemic ApoE-/- mouse model assessed as decrease in liver fibrosis at 5 to 15 mg/kg, ip administered daily for 3 weeks in presence of SIMV by H and E staining based analysis; assay type: functional, organism-based; conditions: dose 5-15 mg/kg
Mus musculus [14] = test: Antiatherosclerotic activity in hypercholesterolemic ApoE-/- mouse model assessed as decrease in plasma triglyceride level administered intraperitoneally measured after 14 days; assay type: functional, organism-based; conditions: dose 15.0 mg/kg/day, route ip, time 14.0 day
Mus musculus [15] = test: Synergistic antiatherosclerotic activity in hypercholesterolemic ApoE-/- mouse model assessed as […] in liver IL-1beta level at 5 to 15 mg/kg, ip administered daily for 3 weeks in presence of SIMV by Western blot analysis; assay type: functional, organism-based; conditions: dose 5-15 mg/kg
Mus musculus [16] = test: Synergistic antiatherosclerotic activity in hypercholesterolemic ApoE-/- mouse model assessed as decrease in plasma LDL-C level at 15 mg/kg, ip administered daily for 3 weeks in presence of SIMV; assay type: functional; design: scale not given: the % may be the effect or the level left
Mus musculus [17] = test: Antiatherosclerotic activity in hypercholesterolemic ApoE-/- mouse model assessed as decrease in TG accumulation in liver at 5 to 15 mg/kg/day, ip measured after 21 days; assay type: functional, organism-based; conditions: dose 5-15 mg/kg/day, time 21.0 day
Mus musculus [18] = test: Antiatherosclerotic activity in hypercholesterolemic ApoE-/- mouse model assessed as decrease in liver fibrosis at 5 to 15 mg/kg/day, ip measured after 21 days by H and E staining based analysis; assay type: functional, organism-based; conditions: dose 5-15 mg/kg/day, time 21.0 day
Mus musculus [19] = test: Antiatherosclerotic activity in hypercholesterolemic ApoE-/- mouse model assessed as decrease in oxidative stress in liver at 5 to 15 mg/kg/day, ip measured after 21 days; assay type: functional, organism-based; conditions: dose 5-15 mg/kg/day, time 21.0 day
Huh-7 [20] = conditions: Homo sapiens, dose <= 100.0 nM
Description: Inhibition of oxidative stress injury in PA/LPS-stimulated human Huh-7 cells assessed as decrease in triglyceride level upto 100 nM

Mus musculus [21] = test: Antiatherosclerotic activity in hypercholesterolemic ApoE-/- mouse model assessed as decrease in liver PCSK9 level administered intraperitoneally measured after 14 days; assay type: functional, organism-based; conditions: dose 15.0 mg/kg/day, route ip, time 14.0 day
Mus musculus [22] = test: Synergistic antiatherosclerotic activity in hypercholesterolemic ApoE-/- mouse model assessed as effect on plasma MDA level at 5 to 15 mg/kg, ip administered daily for 3 weeks in presence of SIMV; assay type: functional, organism-based; conditions: dose 5-15 mg/kg

COc1cc2c(cc1OCCCCN1C(=O)/C(=C\c3cc(Br)c(O)c(OC)c3)c3cc(Br)ccc31)C(C)(CC(=O)Nc1nccs1)NCC2 (stereo not drawn)
Activity (Mus musculus [1]): Active | Activity (Mus musculus [2]): Active | Activity (Mus musculus [3]): Active | Activity (Mus musculus [4]): Active | Activity (Mus musculus [5]): Active | Activity (Mus musculus [6]): Dose-Dependent Effect | Activity (Huh-7 [7]): inactive | Activity (Mus musculus [8]): Dose-Dependent Effect | Activity (Liver): Dose-Dependent Effect | Activity (Huh-7 [9]): inactive | Activity (Mus musculus [10]): Active | Activity (Mus musculus [11]): inactive | Activity (Mus musculus [12]): Active | Activity (Mus musculus [13]): Active | Activity (Mus musculus [14]): Dose-Dependent Effect | Activity (Mus musculus [15]): Active | Activity (Mus musculus [16]): <=47.36% | Activity (Mus musculus [17]): Active | Activity (Mus musculus [18]): Active | Activity (Mus musculus [19]): Active | inhibition (Huh-7 [20]): Active | Activity (Mus musculus [21]): Dose-Dependent Effect | Activity (Mus musculus [22]): Active
